Experimental data from PubChem BioAssay AID651581 (Sanford-Burnham Center for Chemical Genomics, 2012).
Active and inactive are the calls of the source. How the calls were made is not given here.

Assays:
[1] = biological target: Endothelial PAS domain-containing protein 1 (Homo sapiens) (UniProt Q99814); experiment: HIF-2a and HIF-1a reporter inhibition panel, dose response, selectivity assay for HIF-2a inhibitor project, cell-based, luminescence (AID 651581)
[2] = biological target: Hypoxia-inducible factor 1-alpha (Homo sapiens) (UniProt Q16665); experiment: as above; details: HIF-1a
Chain of Hypoxia-inducible factor 1-alpha (Homo sapiens) (Q16665 whole entry, looked up): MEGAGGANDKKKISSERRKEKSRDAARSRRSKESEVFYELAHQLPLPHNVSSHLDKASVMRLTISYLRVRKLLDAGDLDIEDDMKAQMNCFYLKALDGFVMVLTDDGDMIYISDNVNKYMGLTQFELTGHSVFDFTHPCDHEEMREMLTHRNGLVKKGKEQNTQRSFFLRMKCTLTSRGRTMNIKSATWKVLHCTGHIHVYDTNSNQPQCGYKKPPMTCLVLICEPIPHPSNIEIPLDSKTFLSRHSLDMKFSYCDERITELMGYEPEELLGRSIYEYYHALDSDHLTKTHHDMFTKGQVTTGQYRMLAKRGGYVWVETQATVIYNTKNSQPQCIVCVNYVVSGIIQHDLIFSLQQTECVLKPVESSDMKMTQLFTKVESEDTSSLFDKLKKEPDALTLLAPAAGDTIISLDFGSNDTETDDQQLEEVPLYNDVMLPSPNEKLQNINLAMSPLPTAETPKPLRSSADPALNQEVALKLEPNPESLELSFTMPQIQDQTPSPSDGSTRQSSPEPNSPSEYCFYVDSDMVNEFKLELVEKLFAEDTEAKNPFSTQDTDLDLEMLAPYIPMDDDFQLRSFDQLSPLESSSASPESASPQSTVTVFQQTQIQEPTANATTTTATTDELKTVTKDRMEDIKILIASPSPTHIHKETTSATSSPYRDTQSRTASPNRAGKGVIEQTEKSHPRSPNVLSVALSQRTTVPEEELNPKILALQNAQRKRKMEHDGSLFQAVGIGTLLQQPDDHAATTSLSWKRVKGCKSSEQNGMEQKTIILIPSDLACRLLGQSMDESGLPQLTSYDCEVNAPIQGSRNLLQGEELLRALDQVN

IC50 ([1]; HIF-2a PANC, run 1)	IC50 ([1]; HIF-2a PANC, run 2)	IC50 ([1]; HIF-2a, mean of runs)	IC50 ([1]; HIF-2a, run 1)	IC50 ([1]; HIF-2a, run 2)	IC50 ([2]; run 1)	IC50 ([2]; run 2)	IC50 ([1]; HIF-2a PANC, mean of runs)	IC50 ([2]; mean of runs)	Structure (SMILES)
6.31 µM	> 99 µM	7.51 µM	7.55 µM	7.47 µM	> 99 µM	> 99 µM	–	–	COC(=O)COc1ccc(-c2nccc(-c3ccc(Br)cc3)n2)cc1
> 99 µM	45.8 µM	5.74 µM	5.56 µM	5.91 µM	> 99 µM	> 99 µM	–	–	O=C(O)c1cccc(N/N=C/c2cccs2)c1
0.773 µM	0.801 µM	1.43 µM	1.43 µM	1.44 µM	3.16 µM	2.84 µM	0.787 µM	inactive	Cc1nc2cc(-c3ccc(Cl)cc3)nn2c(C)c1CCC(=O)NCc1ccco1
63.2 µM	25.5 µM	9.66 µM	11.8 µM	7.56 µM	> 99 µM	> 99 µM	inactive	–	CCOC(=O)CNC(=O)CSc1nnc(NC(=O)c2ccc(C)cc2)s1
16.7 µM	12 µM	2.03 µM	2.13 µM	1.94 µM	> 99 µM	> 99 µM	inactive	–	CCOc1ccc(OCc2cccc(C(=O)N/N=C/c3cccnc3)c2)cc1
3.28 µM	2.48 µM	1.07 µM	1.04 µM	1.11 µM	0.274 µM	0.637 µM	2.88 µM	inactive	COC(=O)COc1ccc(-c2nccc(-c3ccccn3)n2)cc1
> 99 µM	> 99 µM	inactive	13.5 µM	13.2 µM	17.7 µM	25 µM	> 99 µM (inactive)	inactive	CCOC(=O)Cn1cc(/C=C/[N+](=O)[O-])c2ccccc21
2.34 µM	2.96 µM	3.08 µM	2.85 µM	3.32 µM	1.23 µM	14.5 µM	2.65 µM	inactive	Cc1c(CCC(=O)NCCC(=O)O)c(=O)oc2c(C)c3oc4c(c3cc12)CCCC4
> 99 µM	> 99 µM	inactive	17 µM	14.5 µM	> 99 µM	> 99 µM	> 99 µM (inactive)	–	O=C(CCCc1ccccc1)Nc1cccc(C(=O)O)c1
2.58 µM	2.96 µM	1.61 µM	1.61 µM	1.61 µM	2.65 µM	4.05 µM	2.77 µM	inactive	Cc1c(CCC(=O)N[C@@H](CC(C)C)C(=O)O)c(=O)oc2cc3oc4c(c3cc12)CCCC4
1.69 µM	3.51 µM	0.452 µM	0.456 µM	0.448 µM	> 99 µM	> 99 µM	inactive	–	Cc1ccc(-n2nc3ccc(N)cc3n2)c(C)c1
< 1 µM	> 99 µM	–	0.2 µM	> 99 µM	20.5 µM	> 99 µM	–	–	CCOC(=O)c1sc(NC(=O)c2cc3c(s2)CCC(C)C3)nc1C (stereo unspecified)
> 99 µM	16.2 µM	inactive	14.3 µM	14.4 µM	15.4 µM	15.7 µM	–	inactive	CC1(C)CC[C@]2(C(=O)O)CC[C@]3(C)C(=CC[C@@H]4[C@@]5(C)CC[C@H](O[C@@H]6O[C@H](C(=O)O)[C@@H](O)[C@H](O[C@@H]7OC[C@H](O)[C@H](O)[C@H]7O)[C@H]6O)C(C)(C)[C@@H]5CC[C@]43C)[C@@H]2C1
> 99 µM	38.7 µM	5.62 µM	5.63 µM	5.6 µM	> 99 µM	> 99 µM	–	–	Cc1ccc(S(=O)(=O)ON2C(=O)c3ccccc3C2=O)c(C)c1
0.379 µM	0.455 µM	–	51.8 µM	< 0.19 µM	> 99 µM	> 99 µM	0.417 µM	–	N#Cc1c(NC(=O)CCCC(=O)O)sc2c1CCCCC2
31.5 µM	33.2 µM	9.42 µM	9.5 µM	9.33 µM	14.5 µM	21.4 µM	inactive	inactive	O=C(Nc1ccc(N2CCOCC2)cc1)c1cnccn1
> 99 µM	> 99 µM	inactive	14.5 µM	15.5 µM	> 99 µM	> 99 µM	> 99 µM (inactive)	–	O=C(O)c1cccc(-c2nc3ccccc3[nH]2)c1
26.2 µM	22 µM	7.59 µM	7.71 µM	7.47 µM	14.6 µM	16.7 µM	inactive	inactive	O=C(Nc1ccc(F)cc1)c1nc(S(=O)(=O)Cc2ccccc2)ncc1Cl

IC50 ([1]; HIF-2a PANC, run 1)	IC50 ([1]; HIF-2a PANC, run 2)	IC50 ([1]; HIF-2a, mean of runs)	IC50 ([1]; HIF-2a, run 1)	IC50 ([1]; HIF-2a, run 2)	IC50 ([2]; run 1)	IC50 ([2]; run 2)	IC50 ([1]; HIF-2a PANC, mean of runs)	IC50 ([2]; mean of runs)	Structure (SMILES)
41 µM	< 10 µM	3.69 µM	3.72 µM	3.66 µM	23.3 µM	20.9 µM	–	22.1 µM	CCOC(=O)Cc1csc(NC(=S)NC(=O)c2ccccc2)n1
2.6 µM	2.7 µM	3.03 µM	3.35 µM	2.7 µM	> 99 µM	56.4 µM	2.65 µM	–	Cc1ccc(C)c(-c2nc3cc(N)ccc3o2)c1
81.3 µM	31 µM	7.43 µM	7.46 µM	7.41 µM	28.9 µM	26.2 µM	inactive	27.5 µM	COCCn1c(C)cc(C(=O)CSc2nnc3ccccn23)c1C
47.8 µM	47.4 µM	5.75 µM	5.91 µM	5.59 µM	23.4 µM	13.1 µM	inactive	18.2 µM	COc1cccc(C(=O)C(C#N)=C(SC)SC)c1
19.7 µM	8.77 µM	7.52 µM	7.96 µM	7.07 µM	31.7 µM	25.9 µM	14.2 µM	28.8 µM	CCOC(=O)C1CCN(Cc2cc(=O)oc3c(C)c(C)ccc23)CC1
1.8 µM	1.64 µM	4.13 µM	4.63 µM	3.63 µM	72.4 µM	17 µM	1.72 µM	44.7 µM	Cc1c(CCC(=O)N2CCC[C@H]2C(=O)O)c(=O)oc2c(C)c3oc4c(c3cc12)CCCC4
1.41 µM	1.77 µM	1.05 µM	0.978 µM	1.13 µM	8.3 µM	7.99 µM	1.59 µM	8.15 µM	Cc1nc2cc(-c3ccccc3)nn2c(C)c1CCC(=O)N1CCN(c2ccccc2)CC1
1.02 µM	1.53 µM	0.212 µM	0.196 µM	0.228 µM	> 99 µM	1.56 µM	inactive	–	Cc1nc(SCCC(=O)O)c2cc(-c3ccccc3)sc2n1
30.8 µM	39.5 µM	6.38 µM	6.36 µM	6.39 µM	7.84 µM	14.4 µM	inactive	inactive	N=c1nc(SCCC(=O)O)ss1
1.36 µM	0.912 µM	0.913 µM	0.806 µM	1.02 µM	0.397 µM	0.777 µM	1.14 µM	inactive	O=C(O)COc1ccc(-c2nccc(-c3ccccn3)n2)cc1
17.6 µM	> 99 µM	7.56 µM	7.45 µM	7.66 µM	> 99 µM	> 99 µM	–	–	COC(=O)c1cccc(NC(=O)NC(=O)c2ccccc2Cl)c1
> 99 µM	> 99 µM	8.46 µM	8.53 µM	8.39 µM	> 99 µM	> 99 µM	> 99 µM (inactive)	–	Cc1ccc(C)c(S(=O)(=O)ON2C(=O)c3ccccc3C2=O)c1
> 99 µM	50.5 µM	> 99 µM (inactive)	> 99 µM	> 99 µM	85.7 µM	> 99 µM	–	–	O=C(Nc1sc2c(c1C(=O)O)CCC2)c1ccccc1Cl
4.35 µM	5.63 µM	2.36 µM	2.08 µM	2.64 µM	2.3 µM	2.49 µM	4.99 µM	inactive	COC(=O)CSc1nnc(-c2sc3ccccc3c2Cl)o1
> 99 µM	> 99 µM	9.77 µM	9.64 µM	9.9 µM	64.3 µM	> 99 µM	> 99 µM (inactive)	–	Cc1ccc(NC(=O)c2cc(N3C(=O)C=CC3=O)ccc2N2CCOCC2)cc1
16.5 µM	10.4 µM	8.24 µM	8.72 µM	7.77 µM	> 99 µM	> 99 µM	13.5 µM	–	CCOC(=O)C1CCCN(C(=O)COc2ccc(C(C)(C)C)cc2)CC1 (stereo unspecified)
1.53 µM	0.311 µM	0.391 µM	0.37 µM	0.412 µM	1.56 µM	1.12 µM	0.92 µM	1.34 µM	N#Cc1ccccc1COc1ccc(/C=C/C(=O)O)cc1
21 µM	72.7 µM	< 30 µM (inactive)	< 30 µM	< 30 µM	> 99 µM	> 99 µM	46.9 µM	–	CCOc1ccc(C(=O)Nc2nnc(SCC(=O)NCC3CCCO3)s2)cc1 (stereo unspecified)
